Reference: ChEMBL document CHEMBL5154651, “Substituent effect of benzyl moiety in nitroquinoxaline small molecules upon DNA binding: Cumulative destacking of DNA nucleobases leading to histone eviction” (Eur J Med Chem, 2022)
Calls of active or inactive are those of the source. The calls are words filed in the database; no cut-off is given here.

Key:
[1] = Induction of histone eviction from single assembled nucleosome (unknown origin) assessed as reduction in nucleosome band intensity at 75 uM incubated for 4 hrs by silver staining based gel electrophoresis assay
GC rich DNA [2] = assay: Disruption of native ds-GC12 DNA (unknown origin) base stacking interaction assessed as appearance of ICD at 325 nm by circular dichroism analysis; type: nucleic-acid assay
DNA [3] = assay: Induction of GC-rich pYUB12 plasmid DNA (unknown origin) unwinding assessed as complete structural change with DNA condensation by measuring increase in condensed DNA band intensity at DNA base-pair to compound ratio of 1:1.5 incubated for 16 hrs by mobility shift assay; type: nucleic-acid assay
GC rich DNA [4] = assay: Displacement of Ethidium bromide from native ds-GC12 short DNA (unknown origin) by Stern-Volmer quenching plot analysis; type: nucleic-acid assay
DNA [5] = assay: Induction of GC-rich pYUB12 plasmid DNA (unknown origin) unwinding assessed as complete conformational change as condensed form at DNA base-pair to compound ratio of 1:2 incubated for 16 hrs by mobility shift assay; type: nucleic-acid assay
DNA [6] = assay: Induction of GC-rich pYUB12 plasmid DNA (unknown origin) unwinding assessed as DNA structural changes at DNA base-pair to compound ratio of 1:6 incubated for 16 hrs by mobility shift assay; type: nucleic-acid assay
GC rich DNA [7] = assay: Disruption of native ds-GC12 DNA (unknown origin) base stacking interaction assessed as decrease in positive peak intensity at 283 nm at DNA base-pair to compound ratio of 1:4 by circular dichroism analysis; type: nucleic-acid assay
HCT-116 [8] = assay: Cytotoxicity against human HCT-116 cells assessed as reduction in cell viability incubated for 24 hrs by MTT assay; type: functional, cell-based; settings: HCT-116, 24 h
GC rich DNA [9] = assay: Disruption of native ds-GC12 DNA (unknown origin) base stacking interaction assessed as DNA structural changes at DNA base-pair to compound ratio of 1:4 by circular dichroism analysis; type: nucleic-acid assay
GC rich DNA [10] = assay: Binding affinity to native ds-GC12 DNA assessed as increase in transition temperature of oligonucleotides at DNA-base pair to compound ratio of 1:4 by differential scanning calorimetry melting based analysis; type: nucleic-acid assay
HCT-116 [11] = assay: Induction of DNA double strand breaks in human HCT-116 cells incubated for 24 hrs by neutral comet assay; type: functional, cell-based; settings: dose 0.5-0.75 µM, DDE = dose-dependent effect
DNA [12] = assay: Induction of GC-rich pYUB12 plasmid DNA (unknown origin) superstructure formation assessed as DNA compaction with distorted structure at DNA base-pair to compound ratio of 1:1 by Atomic Force Microscopic analysis; type: nucleic-acid assay
GC rich DNA [13] = assay: Disruption of native ds-GC12 DNA (unknown origin) base stacking interaction assessed as decrease in positive peak intensity at 283 nm by circular dichroism analysis; type: nucleic-acid assay
Calf thymus DNA [14] = assay: Binding affinity to calf thymus DNA assessed as change in enthalpy by isothermal titration calorimetry; type: nucleic-acid assay; settings: Bos taurus
HCT-116 [15] = assay: Induction of apoptosis in human HCT-116 cells assessed as viable cells at 1 uM incubated for 24 hrs by Annexin V-FITC and propidium iodide staining based flow cytometry analysis (reference value: 95.3%); type: functional; settings: read-out: Activity
HCT-116 [16] = assay: Induction of apoptosis in human HCT-116 cells assessed as viable cells at 0.75 uM incubated for 24 hrs by Annexin V-FITC and propidium iodide staining based flow cytometry analysis (reference value: 95.3%); type: functional; settings: read-out: Activity
[17] = Induction of histone eviction from single assembled nucleosome (unknown origin) assessed as reduction in nucleosome band intensity at 60 uM incubated for 4 hrs by silver staining based gel electrophoresis assay
HCT-116 [18] = assay: Induction of apoptosis in human HCT-116 cells assessed as viable cells at 0.5 uM incubated for 24 hrs by Annexin V-FITC and propidium iodide staining based flow cytometry analysis (reference value: 95.3%); type: functional; settings: read-out: Activity
DNA [19] = assay: Binding affinity to GC-rich pYUB12 plasmid DNA (unknown origin) assessed as induction of DNA unwinding by measuring band shifting at DNA base-pair to compound ratio of 1:1 incubated for 16 hrs by mobility shift assay; type: nucleic-acid assay
DNA [20] = assay: Induction of GC-rich pYUB12 plasmid DNA (unknown origin) superstructure formation assessed as height of plasmid DNA at DNA base-pair to compound ratio of 1:1.5 by Atomic Force Microscopic analysis (reference value: 0.26 +/-0.08 nm); type: nucleic-acid assay
[21] = Induction of histone eviction from single assembled nucleosome (unknown origin) assessed as maximum unwrapping of histone from nucleosome at 25 uM incubated for 4 hrs by silver staining based gel electrophoresis assay
HCT-116 [22] = assay: Induction of apoptosis in human HCT-116 cells assessed as necrotic cells at 0.75 uM incubated for 24 hrs by Annexin V-FITC and propidium iodide staining based flow cytometry analysis (reference value: 3.9%); type: functional
HCT-116 [23] = assay: Induction of apoptosis in human HCT-116 cells assessed as late apoptotic cells at 0.5 uM incubated for 24 hrs by Annexin V-FITC and propidium iodide staining based flow cytometry analysis (reference value: 0.3%); type: functional
GC rich DNA [24] = assay: Disruption of native ds-GC12 DNA (unknown origin) base stacking interaction assessed as deformation of DNA native structure at DNA base-pair to compound ratio of 1:4 by circular dichroism analysis; type: nucleic-acid assay
GC rich DNA [25] = assay: Binding affinity to native ds-GC12 DNA assessed as reduction in melting temperature at DNA-base pair to compound ratio of 1:1 by differential scanning calorimetry melting based analysis; type: nucleic-acid assay
HCT-116 [26] = assay: Induction of apoptosis in human HCT-116 cells assessed as late apoptotic cells at 1 uM incubated for 24 hrs by Annexin V-FITC and propidium iodide staining based flow cytometry analysis (reference value: 0.3%); type: functional
HCT-116 [27] = assay: Induction of apoptosis in human HCT-116 cells assessed as early apoptotic cells at 0.5 uM incubated for 24 hrs by Annexin V-FITC and propidium iodide staining based flow cytometry analysis (reference value: 0.6%); type: functional
HCT-116 [28] = assay: Induction of DNA damage in human HCT-116 cells assessed as induction of phosphorylation of gamma-H2AX variant at 0.75 uM incubated for 4 hrs by DAPI staining based immunofluorescence analysis; type: functional, cell-based
HCT-116 [29] = assay: Induction of apoptosis in human HCT-116 cells assessed as early apoptotic cells at 0.75 uM incubated for 24 hrs by Annexin V-FITC and propidium iodide staining based flow cytometry analysis (reference value: 0.6%); type: functional
HCT-116 [30] = assay: Induction of DNA damage in human HCT-116 cells assessed as induction of phosphorylation of gamma-H2AX variant incubated for 4 hrs by DAPI staining based immunofluorescence analysis; type: functional, cell-based; settings: HCT-116, 4 h
GC rich DNA [31] = assay: Binding affinity to native ds-GC12 DNA assessed as shift in melting temperature at DNA-base pair to compound ratio of 1:1 by differential scanning calorimetry melting based analysis; type: nucleic-acid assay
HCT-116 [32] = assay: Induction of apoptosis in human HCT-116 cells assessed as late apoptotic cells at 0.75 uM incubated for 24 hrs by Annexin V-FITC and propidium iodide staining based flow cytometry analysis (reference value: 0.3%); type: functional
HCT-116 [33] = assay: Induction of DNA double strand breaks in human HCT-116 cells assessed as increase in tail length at 0.5 to 0.75 uM incubated for 24 hrs by neutral comet assay; type: functional, cell-based; settings: dose 0.5-0.75 µM
[34] = Induction of histone eviction from single assembled nucleosome (unknown origin) assessed as unwrapping of histone from nucleosome at 15 to 20 uM incubated for 4 hrs by silver staining based gel electrophoresis assay; settings: dose 15-20 µM
HCT-116 [35] = assay: Induction of apoptosis in human HCT-116 cells assessed as necrotic cells at 1 uM incubated for 24 hrs by Annexin V-FITC and propidium iodide staining based flow cytometry analysis (reference value: 3.9%); type: functional
GC rich DNA [36] = assay: Disruption of native ds-GC12 DNA base (unknown origin) stacking interaction assessed as change in peak intensity at 283 nm at 15 to 60 uM by ellipticity plot based analysis; type: nucleic-acid assay; settings: dose 15-60 µM
DNA [37] = assay: Induction of GC-rich pYUB12 plasmid DNA (unknown origin) superstructure formation assessed as uncoiling of DNA with nodes and loops formation and DNA compaction at DNA base-pair to compound ratio of 1:0.5 by Atomic Force Microscopic analysis; type: nucleic-acid assay
Calf thymus DNA [38] = assay: Binding affinity to calf thymus DNA by isothermal titration calorimetry; type: nucleic-acid assay; settings: Bos taurus
Calf thymus DNA [39] = assay: Binding affinity to calf thymus DNA assessed as change in free energy by isothermal titration calorimetry; type: nucleic-acid assay; settings: Bos taurus
Supercoiled DNA = assay: Induction of GC-rich pYUB12 plasmid DNA (unknown origin) unwinding assessed as complete structural change by measuring decrease in band intensity of supercoiled DNA at DNA base-pair to compound ratio of 1:1.5 incubated for 16 hrs by mobility shift assay; type: nucleic-acid assay
Calf thymus DNA [40] = assay: Binding affinity to calf thymus DNA assessed as change in entropy by isothermal titration calorimetry; type: nucleic-acid assay; settings: Bos taurus
HCT-116 [41] = assay: Induction of apoptosis in human HCT-116 cells assessed as increase in uptake of fluorescent nucleotide at 0.5 to 0.75 uM incubated for 4 hrs by TUNEL assay; type: functional, cell-based; settings: dose 0.5-0.75 µM
DNA [42] = assay: Induction of GC-rich pYUB12 plasmid DNA (unknown origin) superstructure formation assessed as DNA compaction with DNA over-supercoiling at DNA base-pair to compound ratio of 1:1.5 by Atomic Force Microscopic analysis; type: nucleic-acid assay
HCT-116 [43] = assay: Induction of apoptosis in human HCT-116 cells assessed as necrotic cells at 0.5 uM incubated for 24 hrs by Annexin V-FITC and propidium iodide staining based flow cytometry analysis (reference value: 3.9%); type: functional
HCT-116 [44] = assay: Induction of apoptosis in human HCT-116 cells assessed as early apoptotic cells at 1 uM incubated for 24 hrs by Annexin V-FITC and propidium iodide staining based flow cytometry analysis (reference value: 0.6%); type: functional
GC rich DNA [45] = assay: Disruption of native ds-GC12 DNA (unknown origin) base stacking interaction assessed as DNA structural changes by circular dichroism analysis; type: nucleic-acid assay
DNA [46] = assay: Induction of GC-rich pYUB12 plasmid DNA (unknown origin) unwinding assessed as DNA structural changes at DNA base-pair to compound ratio of 1:4 incubated for 16 hrs by mobility shift assay; type: nucleic-acid assay

CN(C)CCCNc1nc2cc([N+](=O)[O-])ccc2nc1NCc1ccc(C(F)(F)F)cc1
Activity [1]: Active | Activity (GC rich DNA [2]): Active | Activity (DNA [3]): Active | KSV (GC rich DNA [4]): 4.6 10^4/M | Activity (DNA [5]): Active

CN(C)CCCNc1nc2cc([N+](=O)[O-])ccc2nc1NCc1ccccc1
Activity (DNA [6]): Active | Activity (GC rich DNA [7]): Active | KSV (GC rich DNA [4]): < 1 10^4/M

O=[N+]([O-])c1ccc2nc(NCc3ccccc3)c(N3CCCCC3)nc2c1
IC50 (HCT-116 [8]): > 50 µM | KSV (GC rich DNA [4]): 0.19 10^4/M

CN(C)CCCNc1nc2cc([N+](=O)[O-])ccc2nc1NCc1ccc([N+](=O)[O-])cc1
Activity (DNA [6]): Active | Activity (GC rich DNA [7]): Active | KSV (GC rich DNA [4]): < 1 10^4/M

CN(C)CCCNc1nc2cc([N+](=O)[O-])ccc2nc1NCc1ccc(N)cc1
Activity (DNA [6]): Active | Activity (GC rich DNA [7]): Active | KSV (GC rich DNA [4]): < 1 10^4/M

CN(C)CCCNc1nc2cc([N+](=O)[O-])ccc2nc1NCc1cccs1
Activity (GC rich DNA [9]): Active | KSV (GC rich DNA [4]): < 0.3 10^4/M

CN(C)CCCNc1nc2cc([N+](=O)[O-])ccc2nc1NCc1ccc(I)cc1
ΔTm (GC rich DNA [10]): 12 °C | Activity (HCT-116 [11]): Dde | Activity (DNA [12]): Active | Activity (GC rich DNA [13]): Active | deltaH (Calf thymus DNA [14]): -7.32 kJ/mol | viability at 1 µM (HCT-116 [15]): 3% | IC50 (HCT-116 [8]): 0.44 µM | viability at 0.75 µM (HCT-116 [16]): 1.7% | Activity [17]: Active | viability at 0.5 µM (HCT-116 [18]): 2.2% | Activity (DNA [19]): Active | Activity (DNA [20]): 1.48 nm | Activity [21]: Active | Activity (HCT-116 [22]): 0.4% | Activity (HCT-116 [23]): 18.2% | Activity (GC rich DNA [24]): Active | ΔTm (GC rich DNA [25]): 2.5 °C | Activity (HCT-116 [26]): 27% | Activity (DNA [3]): Active | Activity (HCT-116 [27]): 79.2% | Activity (HCT-116 [28]): Active | Activity (HCT-116 [29]): 76.8% | IC50 (HCT-116 [30]): 0.5 µM | Tm (GC rich DNA [31]): 49.5 °C | Activity (HCT-116 [32]): 21.1% | Activity (DNA [6]): Active | Activity (HCT-116 [33]): Active | Activity [34]: Active | Activity (HCT-116 [35]): 0.7% | Activity (GC rich DNA [36]): Active | Activity (DNA [37]): Active | Ka (Calf thymus DNA [38]): 4.66 10^5/M | deltaG (Calf thymus DNA [39]): -32.9 kJ/mol | Activity (Supercoiled DNA): Active | TdeltaS (Calf thymus DNA [40]): 25.6 kJ/mol | KSV (GC rich DNA [4]): 5.8 10^4/M | Activity (HCT-116 [41]): Active | Activity (DNA [42]): Active | Activity (HCT-116 [43]): 0.3% | Activity (HCT-116 [44]): 69.3%

Cc1ccc(CNc2nc3ccc([N+](=O)[O-])cc3nc2NCCCN(C)C)cc1
Activity (GC rich DNA [45]): Active | deltaH (Calf thymus DNA [14]): -7.78 kJ/mol | Activity (DNA [46]): Active | Ka (Calf thymus DNA [38]): 1.54 10^5/M | deltaG (Calf thymus DNA [39]): -30.1 kJ/mol | TdeltaS (Calf thymus DNA [40]): 22.3 kJ/mol | KSV (GC rich DNA [4]): 1.7 10^4/M
